Columns and labels:
TdcF [1] = biological target: T1, TdcF (Escherichia coli, UniProt P0AGL2); test: X-ray crystal structure, crystal soak; type: binding; settings: 1 mM soak, 2 h, pH 8
T1 construct: recombinant, N-terminal His-tag not cleaved; homotrimer, 14 kDa subunits; ligand sites at subunit interfaces; Cys-36 seen as cysteine sulfonic acid in crystals

TdcF [2] = biological target: T1, TdcF; test: X-ray crystal structure, no ligand added (as isolated); type: binding; settings: 1.6 Å; inter-subunit site C only; putative identity from density, threonine an alternative

T1 sequence (P0AGL2 whole entry): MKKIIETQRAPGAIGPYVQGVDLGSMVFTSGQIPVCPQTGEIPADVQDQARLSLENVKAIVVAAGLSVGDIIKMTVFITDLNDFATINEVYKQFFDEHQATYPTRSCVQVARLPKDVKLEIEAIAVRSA

SMILES: CCC(=O)C(=O)O [2KT, 2-ketobutyrate]
- X-ray crystal structure, crystal soak (TdcF [1]; 1.6 Å, inter-subunit sites A, B and C occupied): clear density for a 2-ketobutyrate ligand in each of the three binding sites

SMILES: N[C@@H](CO)C(=O)O [SER, serine]
- X-ray crystal structure, no ligand added (as isolated) (TdcF [2]): with serine as the ligand with its side-chain in two alternative conformations of equal occupancy

SMILES: CCC(=O)O [PPI, propionate]
- X-ray crystal structure, crystal soak (TdcF [1]; 2.45 Å, inter-subunit sites B and C occupied): a propionate molecule could be placed with confidence in both

Reference: publication PMC1884159, “The crystal structure of Escherichia coli TdcF, a member of the highly conserved YjgF/YER057c/UK114 family” (BMC Structural Biology, 2007)
